Results on nine compounds are retold here after patent US20220257774A1, “AROMATIC AMINE AR AHD BET TARGETING PROTEIN DEGRADATION CHIMERA COMPOUND AND USE” (HINOVA PHARMACEUTICALS INC., priority 2019, published 2022).

Common to all, as to assay type: cell-based
Experiment [1] concerns the target T1, BRD4 (Homo sapiens, UniProt O60885).
T1 construct: CWR22RV1 cells were subcultured in cell culture media; endogenous in cells; host or cells: CWR22RV1 cells
The experiment can be described thus: Down-regulation/degradation of BRD4 determined by Western blot in CWR22RV1 cells. The settings on record: concentration 100 nM, 24 h. Here is the method:
(§1) The Down-Regulation on the Protein Expression of Androgen Receptors AR and Brd4 Determined by Western Blot CWR22RV1 cells (National Collection of Authenticated Cell Cultures. TCHu100) FBS (Gibco, Cat. No. 10099-141) 0.01M PBS (Biosharp. Cat. No. 162262) RIPM1640 (Hyclone, Cat. No. 308090.01) Penicillin-Streptomycin (Hyclone. Cat. No. SV30010) DMSO (Sigma. Cat. No. D5879) Centrifuge tube, 15 ml (Excell Bio. Cat. No. CS015-0001) Cell culture plate (Excell Bio. Cat. No. CS016-0128) 6-well cell culture cluster (Corning, Cat. No. 3516) RIPA lysate buffer (Beyotime, Cat. No. P0013B) Protein loading buffer (Beyotime, Cat. No. P0015L) CA protein assay kit (Beyotime, Cat. No. P0012) SDS-PAGE gel preparation kit (Chengdu Baihe Technology Co., Ltd. Cat. No. PG112) Anti-β-tubulin mouse mAb (Zen Bioscience, Cat. No. 200608) Androgen Receptor ([…]) XP Rabbit mAb (CST. Cat. No. 5153) Anti-cMyc(D3N8F) Rabbit mAb (CST. Cat. No. 13987) Anti-BRD4(E2A7X) rabbit mAb (CST, Cat. No. 13440) Peroxidase Affinipure(HRP) Goat Anti-Mouse IgG (Zen Bioscience, Cat. No. 511103) Peroxidase Affinipure(HRP) Goat Anti-Rabbit IgG (Zen Bioscience, Cat. No. 511203) TBST (Biosharp. Cat. No. B[…]) ECL chemiluminescence kit (Beyotime, Cat. No. […]1 cells were subcultured in cell culture media, and then the cells in good growth condition were seeded in a 6-well plate at 2 ml/well (1×10^6 cells/well), and cultured overnight in a 37° C., 5% CO2 cell incubator. 2) The drug was prepared as a 10 mM stock solution with dimethyl sulfoxide (DMSO). […] The plate was gently tapped to thoroughly mix. In addition, the experiment included negative control wells (containing equal amount of DMSO) and positive control wells. 3) After culturing 24 hi, the cells were lysed with RIPA cell lysate, and the protein was extracted. […] The first antibody (Androgen Receptor ([…]) XP Rabbit mAb. Anti-cMyc(D3N8F) Rabbit mAb, Anti-BRD4(E2A7X) rabbit mAb and Anti-β-Tubulin Mouse mAb) was added and incubated overnight at 4° C. The membrane was rinsed with TBST solution three times, 10 min for each time. The secondary antibody (horseradish peroxidase labeled goat anti mouse IgG) was added and incubated at room temperature for 2 h, and then the membrane was washed with TBST solution three times, 10 m for each time. Finally. ECL chemiluminescence solution was added, and then photos were taken with automatic chemiluminescence instrument to collect pictures for analysis.

Experiment [2] deals with Androgen receptor (AR). Nature of the experiment: Down-regulation/degradation of AR determined by Western blot in CWR22RV1 cells. The conditions noted are these: concentration 100 nM, 24 h. As for the experimental part:
as §1

Experiment [3] deals with 22RV1 cells. Nature of the experiment: Inhibition of the proliferation of drug-resistant prostate cancer cell 22RV1 (CCK-8). The conditions noted are these: Homo sapiens; 22RV1 cells (enzalutamide-resistant), same method. The procedure, abridged:
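22RV1 cells, 1000/well in RPMI1640 with 10% FBS, treated in duplicate with 9-point 3-fold dilutions from 10 μM (0.1% DMSO final). After 6 days at 37 °C, CCK-8 added for 1 h and OD450 read. IC50 from dose-response inhibition fit.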

Experiment [4] relates to LNCaP/AR cells. Nature of the experiment: Inhibition of the proliferation of LNCap/AR cells (CCK-8). The conditions noted are these: 144 h, read-out: LNCap/AR IC50. The procedure, abridged: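 Proliferation was read by CCK-8 (OD 450 nm, 1 h) after six days of compound exposure. Cells were seeded at 1000 per well overnight, then dosed in duplicate over nine 3-fold steps with a top final concentration of 10 μM in 0.1% DMSO; IC50 was fitted from inhibition curves.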

[5] abbreviates: LNCaP/AR cells, 6 days culture, CCK-8.

pIC50: −log10 of the molar value. Where two headings read alike, the source gives them in different places.

For `Cc1ccc(-c2c(C)noc2C)cc1N(CCCCNc1ccc2c(c1)C(=O)N(C1CCC(=O)NC1=O)C2=O)c1ccc(C#N)c(Cl)c1` (stereo not drawn) [Compound 165, 2-Chloro-4-((5-(3,5-dimethylisoxazol-4-yl)-2-methylphenyl)(4-((2-(2,6-dioxopiperidin-3)-1,3-dioxyisoindolin-5-yl)amino)butyl)amino)benzonitrile], the “BRD4 (% degradation)” value in experiment [1] is reported as “A (>80% of the target protein was degraded)”. For the same compound, the “AR (% degradation)” value in experiment [2] is reported as “C (49%-20% of the target protein was degraded)”. For the same compound, the pIC50 in experiment [3] was below 5.70; in experiment [4] (LNCaP/AR), 5.70 to 6.30.

On to `Cc1ccc(-c2c(C)noc2C)cc1N(C[C@H]1CC[C@H](CNc2cc3c(cc2F)CN(C2CCC(=O)NC2=O)C3=O)CC1)c1ccc(C2(C#N)CC2)cc1` (stereo partly drawn) [Compound 168], for which, in experiment [1], the “BRD4 (% degradation)” value is “A (>80% of the target protein was degraded)”. For the same compound, the “AR (% degradation)” value in experiment [2] is listed as “C (49%-20% of the target protein was degraded)”. In addition, the pIC50 in experiment [3] and in experiment [4] (setting [5]) was above 7.00 throughout.

Regarding `Cc1ccc(-c2c(C)noc2C)cc1N(C[C@H]1CC[C@H](CNc2cc3c(cc2F)C(=O)N(C2CCC(=O)NC2=O)C3)CC1)c1ccc(C2(C#N)CC2)cc1` (stereo partly drawn) [Compound 169], in experiment [1], the “BRD4 (% degradation)” value is listed as “B (79%-50% of the target protein was degraded)”. For the same compound, the “AR (% degradation)” value in experiment [2] is on record as “C (49%-20% of the target protein was degraded)”. Also, the pIC50 in experiment [3] is above 7.00; in experiment [4] (setting [5]), 6.30 to 7.00.

For `Cc1ccc(-c2c(C)noc2C)cc1N(CCCNc1ccc2c(c1)C(=O)N(C1CCC(=O)NC1=O)C2=O)c1ccc(C2(C#N)CC2)cc1` (stereo not drawn) [Compound 172, 1-(4-((5-(3,5-Dimethylisoxazol-4-yl)-2-methylphenyl)(3-((2-(2,6-dioxopiperidin-3-yl)-1,3-dioxoisoindolin-5-yl)amino)propyl)amino)phenyl)cyclopropane-1-nitrile], the “BRD4 (% degradation)” value in experiment [1] is given as “D (<20% of the target protein was degraded)”. In addition, in experiment [2], the “AR (% degradation)” value is on record as “D (<20% of the target protein was degraded)”. Moreover, the pIC50 in experiment [3] was 6.30 to 7.00; in experiment [4] (setting [5]) it was 5.70 to 6.30.

Consider `Cc1ccc(-c2c(C)noc2C)cc1N(CC(C)OC1CN(c2ccc3c(c2)C(=O)N(C2CCC(=O)NC2=O)C3=O)C1)c1ccc(C2(C#N)CC2)cc1` (stereo not drawn) [Compound 174, 1-(4-((5-(3,5-Dimethylisoxazol-4-yl)-2-methylphenyl)(2-((1-(2-(2,6-dioxopiperidin-3-yl)-1,3-dioxoisoindolin-5-yl)azacyclobutane-3-yl)oxy)propyl)amino)phenyl)cyclopropane-1-nitrile], for which the “BRD4 (% degradation)” value in experiment [1] is given as “D (<20% of the target protein was degraded)”. In addition, in experiment [2], the “AR (% degradation)” value is reported as “D (<20% of the target protein was degraded)”. Also, the results for the pIC50 in experiment [3] and in experiment [4] (setting [5]) were above 7.00 and 5.70 to 6.30, respectively.

As to `Cc1ccc(-c2c(C)noc2C)cc1N(CC(C)OC1CN(c2cc3c(cc2F)C(=O)N(C2CCC(=O)NC2=O)C3)C1)c1ccc(C2(C#N)CC2)cc1` (stereo not drawn) [Compound 178, 1-(4-((5-(3,5-dimethylisoxazol-4-yl)-2-methylphenyl)(2-((1-(2-(2,6-dioxopiperidin-3-yl)-6-fluoro-1-oxoisoindolin-5-yl)azetidin-3-yl)oxy)propyl)amino)phenyl)cyclopropane-1-nitrile], the “BRD4 (% degradation)” value in experiment [1] is “A (>80% of the target protein was degraded)”. Besides, the “AR (% degradation)” value in experiment [2] is listed as “B (79%-50% of the target protein was degraded)”. Moreover, the pIC50 in experiment [3] and in experiment [4] (setting [5]) was above 7.00 in each case.

With `Cc1ccc(-c2c(C)noc2C)cc1N(CC(C)OC1CN(c2ccc3c(c2)CN(C2CCC(=O)NC2=O)C3=O)C1)c1ccc(C2(C#N)CC2)cc1` (stereo not drawn) [Compound 180, 1-(4-((5-(3,5-dimethylisoxazol-4-yl)-2-methylphenyl)(2-((1-(2-(2,6-dioxopiperidin-3-yl)-1-oxoisoindolin-5-yl)azacyclobutane-3-yl)oxy)propyl)amino)phenyl)cyclopropane-1-nitrile], the “BRD4 (% degradation)” value in experiment [1] is “A (>80% of the target protein was degraded)”. Also, the “AR (% degradation)” value in experiment [2] is reported as “D (<20% of the target protein was degraded)”. Besides, the pIC50 in experiment [3] and in experiment [4] (setting [5]) was above 7.00 throughout.

With `Cc1ccc(-c2c(C)noc2C)cc1N(C[C@H]1CC[C@H](CNc2ccc3c(c2)C(=O)N(C2CCC(=O)NC2=O)C3)CC1)c1ccc(C2(C#N)CC2)cc1` (stereo partly drawn) [Compound 193], in experiment [1], the “BRD4 (% degradation)” value is listed as “B (79%-50% of the target protein was degraded)”. For the same compound, the “AR (% degradation)” value in experiment [2] was “D (<20% of the target protein was degraded)”. In addition, the pIC50 in experiment [3] and in experiment [4] (setting [5]) was above 7.00 in each case.

For the compound `Cc1ccc(-c2c(C)noc2C)cc1N(C[C@H]1CC[C@H](CNc2ccc3c(c2)CN(C2CCC(=O)NC2=O)C3=O)CC1)c1ccc(C2(C#N)CC2)cc1` (stereo partly drawn) [Compound 194], in experiment [1], the “BRD4 (% degradation)” value is on record as “D (<20% of the target protein was degraded)”. Moreover, the “AR (% degradation)” value in experiment [2] is on record as “D (<20% of the target protein was degraded)”. Moreover, the pIC50 is above 7.00 in experiment [3] and 6.30 to 7.00 in experiment [4] (setting [5]).
